# Measured values: patent US20020098477A1, “METHODS FOR SCREENING NUCLEAR TRANSCRIPTION FACTORS FOR THE ABILITY TO MODULATE AN ESTROGEN RESPONSE” (priority 1997, published 2002)
# Tests used:
# [1] = system: PR-B; assay: ColALuc reporter assay in HeLa cells transfected with ER, PR-B and c-Jun; type: cell-based, human
# Protocol: (§1) (FIG. 8A) HeLa cells were transfected with ColALuc (5 μg), ER (1 μg), PR-A or PR-B (1 μg), and c-Jun (3 μg). Data are from four separate transfections from three experiments for PR-A and from two transfections from two experiments for PR-B. Columns represent the average fold induction. (FIG. 8B) CV-1 cells were transfected with ColALuc (5 μg), ER (HE0, 0.5 μg), PR-A (1 μg) and c-Jun (3 μg). Data is from one experiment. Columns represent the average of two treatment points. Similar experiments have been repeated 3 times or less. (FIGS. 8A and 8B) Cells were treated with steroids immediately after transfection and harvested 40 hrs later. Error bars represent standard deviation.
# (§2) Coll517mAP-1-CAT contains three point mutations in the consensus AP-1 response element (TGAGTCA mutated to GTACTCA). […]
# (§3) Cells were transfected by electroporation as previously described (Webb et al. (1995) Mol. Endo., 9: 443-456). […] The efficiency of transfection was monitored by co-transfection with either a (hCG reporter driven by an actin promoter (Lopez et al. (1993) Mol. Cell. Biol., 13: 3042-3049) or by co-transfection with pJ3LACZ. CAT or luciferase activity was then corrected by dividing by hCG levels or β-galactosidase activity. Five micrograms of collagenase reporter plasmid, and 1 μg of GR expression vector were used in all experiments unless otherwise indicated. […]
# [2] = system: PR-A; assay: ColALuc reporter assay in CV-1 cells transfected with ER, PR-A and c-Jun; type: cell-based, monkey
# Protocol: as §1, §2, §3
# [3] = system: PR-A; settings: HeLa, 10^−7 M
# Protocol: (FIG. 8A) HeLa cells were transfected with ColALuc (5 μg), ER (1 μg), PR-A or PR-B (1 μg), and c-Jun (3 μg). Data are from four separate transfections from three experiments for PR-A and from two transfections from two experiments for PR-B. Columns represent the average fold induction. […] Similar experiments have been repeated 3 times or less. (FIGS. 8A and 8B) Cells were treated with steroids immediately after transfection and harvested 40 hrs later. Error bars represent standard deviation.
# All cells were maintained in DME medium without phenol red. The medium was supplemented by serum (Sigma) which was tested for low estrogenic activity prior to use. […] In these experiments cells were treated with media containing charcoal-treated serum the night prior to transfection.
# [4] = system: AP-1 response element; assay: Coll73-LUC collagenase reporter gene assay in HeLa cells transfected with ER and GR; type: cell-based, human; settings: for AP-1 activation at dose used: TNF-α 10 ng/ml, data not shown
# Source text: Coll73-LUC and Coll60-CAT have been previously described (Webb et al. (1995) Mol. Endo., 9: 443-456; Lopez et al. (1993) Mol. Cell Biol., 13: 3042-3049). Coll73-LUC consists of −73 to +63 base pairs of the collagenase promoter upstream of the Luciferase reporter gene. Coll517-CAT and Coll517mAP-1-CAT each contain −517 to +63 of the collagenase promoter (Webb et al. (1995) Mol. Endo., 9: 443-456).
# Coll517mAP-1-CAT contains three point mutations in the consensus AP-1 response element (TGAGTCA mutated to GTACTCA). ColALuc contains the collagenase AP-1 response element upstream of the minimal drosophila alcohol dehydrogenase promoter (Starr et al., (1996) Genes & Dev., 10: 1271-1283). The ER expression vectors have been previously described: PHE0 (Green et al. (1986) Nature, 320: 134-139), PHEG0 (Tora et al. (1989) EMBO J. 8: 1981-1986), HE11 (Kumar et al. (1986) EMBO J., 5: 2231-2236), and HE15 (Kumar et al. (1987) Cell, 51: 941-951). PHE0 contains a point mutation (Gly400Val). PHEG0 is the wild type ER. PHE0 has reduced affinity for estrogens which allows for studies in cell culture without inadvertent activation. The protein coding regions of the ER plasmids were cloned into the multiple cloning site of the pSG5 expression vector. pRSVhGR (McEwan et al. (1993) Mol. Cell. Biol., 13: 399-407) consists of a cDNA encoding the human GR coding region inserted into an expression vector driven by the Rous sarcoma virus promoter. The PR-A (PhPR-60) and PR-B (hPR65) plasmids were derived from T47D cDNA and genomic DNA (Law et al (1987) Proc. Natl. Acad. Sci., USA, 84: 2877-2881; Wei et al. (1988) Mol. Endo., 2: 62-72) and cloned into an expression vector derived from pLEN (Kushner et al. (1990) Mol. Endocrinol. 4: 1465-1473). The human c-Jun (Turner et al. (1989) Science, 243: 1689-1694)) and rat c-Fos (Cohen et al. (1989) Genes & Dev., 3: 173-184)), have been previously described. The beta-actin-hCG construct has been previously described (Lopez et al. (1993) Mol. Cell. Biol., 13: 3042-3049). The pJ3-LacZ plasmid is pBR322-based and contains an SV40 promoter which activates LacZ.
# All cells were maintained in DME medium without phenol red. […]
# as §3
molecule,measurement,setting,value
CCC(=O)[C@@]1(C)CC[C@H]2[C@@H]3CCC4=CC(=O)CCC4=C3CC[C@@]21C [R5020],"activity of AP-1 site, single steroid",[1]; 10^−7 M,inhibited the basal activity
same,progestin inhibition on treatment with both steroids,[1]; estradiol + progestin,loss of RU5020 inhibition
same,progestin inhibition of estradiol with increased amounts of c-Jun,"[2]; CV-1, PR-A, increasing c-Jun",maintained
same,effect on the estradiol response,"[2]; CV-1, transfected PR-A",inhibited the estradiol response
same,"activity of AP-1 site, single steroid",[3],inhibited the basal activity
CCCCCCCCCCCCCC(=O)O[C@@H]1[C@@H](C)[C@@]2(O)[C@@H](C=C(CO)C[C@]3(O)C(=O)C(C)=C[C@@H]23)[C@@H]2C(C)(C)[C@]12OC(C)=O [PMA],AP-1 activation at dose used,[4]; PMA 10^−7 M,maximal AP-1 activation
same,transcriptional activity in the absence of steroids,"[4]; PMA 10^−7 M, ER 5 μg, GR 1 μg",ten fold stimulation
CC/C(=C(\c1ccccc1)c1ccc(OCCN(C)C)cc1)c1ccccc1 [tamoxifen],tamoxifen effect on transcription at Coll73,"[4]; tamoxifen 5×10^−6 M, HE0, GR 1 μg",activation
TNF-α,AP-1 activation at dose used,[4]; PMA 10^−7 M,maximal AP-1 activation
